A word on the inhibition: it is the relative decrease from the control value, in per cent. Low values mean little suppression, high ones strong suppression. What is called EC50 is the concentration that produces a half-maximal response. A higher EC50 goes with a need for much substance.

Data on 15 compounds can be found in US6114537A, “Process for scavenging thiols” (Apotex Inc., priority 1997, dated 2000).

For series [1], the target named is Cathepsin B (Rattus norvegicus, UniProt P00787). The experiment in a line: Inhibition of Cathepsin B, enzyme assay and kinetic measurements. The format is biochemical. To be noted: for kinact/KI: approximates kon, read-out: kabs /[inh] (cathepsin B); for inhibition at 200 µM: 200 μM [inhibitor]. An excerpt:
(§1) Inhibition of Cathepsin B, Cathepsin L and Papain by 1,2,4-thiadiazoles and 1,2,4-thiadiazole[4,5-a]benzimidazole derivatives: Enzyme Assays and Kinetic Measurements
(§2) Conditions for the above experiments can be found in the following references: Menard R. et al., Biochemistry 1990, 29, 6706-6713; Fox T. et al., Biochemistry 1992, 31, 12571-12576; Cannona E. et al., Biochemistry 1996, 35, 8149-8157. A typical experiment consisted of choosing an inhibitor concentration such that maximum inhibition could be achieved in less than two hours, monitoring the complete progress curve (i.e. fluorescence vs time), and analyzing the data. The analysis yield two parameters: the % inhibition once steady state was re ached, and a rate constant which represents the rate at which this steady state is reached. Typically, the enzyme activity decreases with time until the maximum level of inhibition is reached (i.e. steady state) where the enzyme activity remains constant. Since significant levels of activity could still be detected at steady state (i.e. inhibition is not complete), the data was fitted to equation (1), which is normally used for slow-binding reversible inhibitors. [formula]
(§3) % inhibition=(1-v1 /vo).100 (2)
(§4) In this equation, [P] represents the concentration of product (obtained from the flourescene readings), kabs is the first order rate constant to reach steady state, vo is the initial rate which corresponds to the rate in the absence of the inhibitor, and vi is the rate of the inhibited enzyme at steady state. The % inhibition was obtained by using equation (2), where the rate measured in the absence of the inhibitor was used for vo. An example of a simple mechanism for such a process is given below: [formula] For this mechanism, the value of kabs determined experimentally would correspond to:
(§5) The value of kabs varies with inhibitor concentration. Often koff is much slower than kon [inh] and kabs /[inh] can be used to approximate kon. This approach is used in this study and the results are shown in below: […]

Series [2] addresses T1, Papain (Carica papaya, UniProt P00784).
T1 sequence (P00784 134-345): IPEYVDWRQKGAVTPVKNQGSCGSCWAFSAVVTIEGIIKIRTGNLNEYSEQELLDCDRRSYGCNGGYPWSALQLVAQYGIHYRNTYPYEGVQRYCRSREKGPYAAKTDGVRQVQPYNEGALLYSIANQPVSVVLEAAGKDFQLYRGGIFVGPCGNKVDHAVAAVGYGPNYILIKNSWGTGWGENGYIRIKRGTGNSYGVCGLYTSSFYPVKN
The experiment in a line: Inhibition of Papain, enzyme assay and kinetic measurements. In kind it is biochemical. The settings on record: for kinact/KI: approximates kon, read-out: kabs /[inh] (papain); for inhibition at 200 µM: 200 μM [inhibitor] (printed 200 μm); for inhibition at 1 µM: 1 μM [inhibitor].
Excerpt: as §1, §2, §3, §4, §5

For series [3], the target named is Cathepsin L (Homo sapiens, UniProt P07711). Description: Inhibition of Cathepsin L, enzyme assay and kinetic measurements. In kind it is biochemical. To be noted: for kinact/KI: approximates kon, read-out: kabs /[inh] (cathepsin L); for inhibition at 5 µM: 5 μM [inhibitor].
Sequence of Cathepsin L (P07711 114-333): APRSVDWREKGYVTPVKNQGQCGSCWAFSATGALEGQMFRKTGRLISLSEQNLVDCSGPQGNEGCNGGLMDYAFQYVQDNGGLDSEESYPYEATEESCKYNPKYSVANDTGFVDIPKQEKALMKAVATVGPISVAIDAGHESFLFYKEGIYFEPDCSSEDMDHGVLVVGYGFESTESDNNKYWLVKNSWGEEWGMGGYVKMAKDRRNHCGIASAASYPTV
Excerpt: as §1, §2, §3, §4, §5

Series [4] in a line: Reaction with benzyl mercaptan. The format is physicochemical. To be noted: organic solvent such as methanol. An excerpt:
The chemical reactivity of monocyclic 1,2,4-thiadiazole as thiol trapping agent depends on the substituent at the 3 and 5 position of the ring system.

For series [5], the target named is T2, hog H^+ /K^+ ATPase (Sus scrofa, UniProt P19156).
T2 construct: Potassium stimulated ATP hydrolysis using hog gastric (GI) vesicles; from tissue; host or cells: hog gastric (GI) vesicles
T2 sequence (P19156 2-1034 limits assumed): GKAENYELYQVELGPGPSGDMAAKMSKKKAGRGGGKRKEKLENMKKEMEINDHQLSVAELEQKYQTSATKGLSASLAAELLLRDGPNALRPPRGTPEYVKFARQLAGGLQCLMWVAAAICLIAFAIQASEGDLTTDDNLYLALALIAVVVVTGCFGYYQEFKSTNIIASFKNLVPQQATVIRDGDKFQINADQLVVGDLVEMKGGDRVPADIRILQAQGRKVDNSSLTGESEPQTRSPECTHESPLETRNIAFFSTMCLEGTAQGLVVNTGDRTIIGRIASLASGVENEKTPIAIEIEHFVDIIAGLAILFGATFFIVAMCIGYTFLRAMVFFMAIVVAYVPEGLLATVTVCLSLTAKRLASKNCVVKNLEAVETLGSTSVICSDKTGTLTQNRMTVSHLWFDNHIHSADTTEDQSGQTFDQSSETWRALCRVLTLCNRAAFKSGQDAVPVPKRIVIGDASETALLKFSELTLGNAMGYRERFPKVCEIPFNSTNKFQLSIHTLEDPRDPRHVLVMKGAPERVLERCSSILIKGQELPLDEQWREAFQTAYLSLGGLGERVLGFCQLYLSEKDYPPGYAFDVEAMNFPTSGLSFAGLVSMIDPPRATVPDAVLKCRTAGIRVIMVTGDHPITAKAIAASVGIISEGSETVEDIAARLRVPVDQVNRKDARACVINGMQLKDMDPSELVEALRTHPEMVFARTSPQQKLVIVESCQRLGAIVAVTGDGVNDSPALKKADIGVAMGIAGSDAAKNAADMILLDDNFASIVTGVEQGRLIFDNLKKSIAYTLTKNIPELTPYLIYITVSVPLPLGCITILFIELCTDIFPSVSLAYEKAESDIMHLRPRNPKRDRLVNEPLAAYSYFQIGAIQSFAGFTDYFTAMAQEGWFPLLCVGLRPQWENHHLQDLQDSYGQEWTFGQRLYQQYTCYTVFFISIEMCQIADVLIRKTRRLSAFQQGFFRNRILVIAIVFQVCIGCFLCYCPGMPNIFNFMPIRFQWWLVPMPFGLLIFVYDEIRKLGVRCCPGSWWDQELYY
T2 sequence (P18434 whole entry partner): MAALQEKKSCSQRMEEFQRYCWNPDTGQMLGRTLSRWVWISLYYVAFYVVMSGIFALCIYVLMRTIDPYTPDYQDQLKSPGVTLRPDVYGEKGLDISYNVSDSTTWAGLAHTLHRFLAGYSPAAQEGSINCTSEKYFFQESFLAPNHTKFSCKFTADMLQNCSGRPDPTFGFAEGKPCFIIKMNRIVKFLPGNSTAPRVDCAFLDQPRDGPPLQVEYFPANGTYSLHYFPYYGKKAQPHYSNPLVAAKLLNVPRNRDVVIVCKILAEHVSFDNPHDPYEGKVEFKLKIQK
The experiment in a line: Gastric ATPase enzyme inhibition assay. The format is biochemical. The settings on record: hog gastric vesicles, K+ stimulated ATP hydrolysis. Here is the method:
Gastric ATPase enzyme inhibition assay
The enzyme used is the hog H^+ /K^+ ATPase (Sachs, et al. J. Biol. Chem. 251:7690-7698, 1976). A modified procedure reported by Yoda A. and Hokin, L.E., Biochem. Res. Commun., 1970, 800-884 is used. Potassium stimulated ATP hydrolysis using hog gastric (GI) vesicles, a preparation enriched in H^+ /K^+ ATPase, is measured.
The difference between activity in the presence of Mg^++ and presence of Mg^++ and K^+ 0 is taken as enzyme activity. Nigericin, a K^+ ionophore, is also present in the (+)K^+ incubation mixture to provide access of K^+ to the vesicle interior. Hydrolysis activity is measured by quantitative analysis of a phosphomolybdate complex. […] The optical density of many drugs used for the inhibition of H^+ /K^+ ATPase interfere in this wavelength. Therefore, a modification of the as say was used wherein the phosphomolybdate complex was reduced with Fiske and Subbarow reducer (1-amino-2-naphthol-4-[…] plus sodium sulfite). This shifts the optical density from 3 20 nm for the oxidized phosphomolybdate complex to 600-700 nm. This modification has the added advantage of providing a means of automated assay when multiple samples being tested. In this modification, the optical density of the assay mixtures was read at 700 nm.
Basal Mg^++ levels are measured in […], 2 mM Na2 ATP, 40 mM Pipes-tris, pH 6.10. 20 mM KCl and 10 μg/ml nigericin is added to determine the extent of stimulation by K^+. Test compounds or vehicle are then added. Enzyme (10 μg/ml) is then added to initiate the reaction. The final volume is 200 μl. The protocol for these assays is shown below.
Zero blanks (water controls) and phosphate standards (200 μl) are added appropriate for assays used: […], 0.050, 0.075, 0.1 . . . 0.5 mM standards. The order of the addition of reagents generally follows as described above. However, it may be more preferable to add either enzyme before ATP if it is important to provide time for pre-cubation with test compounds. Time additions of the last reagent are used to provide a uniform assay time.
The reaction is run for 30 min. to 1 hour. The re action is stopped by addition of 50 μl of a solution prepared by adding 4 volumes of 2.5 M sulfric acid plus one volume of 1.25% (w/v) Fiske and Subbarow reagent. Colour is developed at room temperature for ten minutes and optical density at 700 nm is determined. In the event that a white precipitate forms, the clear supernatants (after mixing and setting) can be used for the determination of enzyme activity.

A short description of series [6]: Acid stability in 6 molar hydrochloric acid. In kind it is physicochemical. To be noted: room temperature. Here is the method: Acid stability of 7-methoxy-3-[(4-methoxy-3,5-dimethyl-2-pyridyl)oxomethyl]-1,2,4-thiadiazolo[4,5-a]benzimidazole.
To examine acid stability of the captioned compound, the compound was dissolved in a minimum volume of methanol and the resulting solution was added to a 6 molar solution of hydrochloric acid.

Where [7] appears, read: steady state, 200 μM [inhibitor] (printed 200 μm).
[8] abbreviates: steady state, 50 μM [inhibitor].

Sequence of Cathepsin B (P00787 80-339): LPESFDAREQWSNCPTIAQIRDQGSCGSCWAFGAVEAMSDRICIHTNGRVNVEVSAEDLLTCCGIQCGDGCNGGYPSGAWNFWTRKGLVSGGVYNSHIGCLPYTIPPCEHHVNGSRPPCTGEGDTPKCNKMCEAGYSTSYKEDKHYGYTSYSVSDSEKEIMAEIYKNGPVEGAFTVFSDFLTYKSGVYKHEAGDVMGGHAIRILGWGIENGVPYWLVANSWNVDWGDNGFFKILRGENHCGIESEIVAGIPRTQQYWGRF

For the compound `COC(=O)[C@@H]1CCCN1c1nsc2nc3ccccc3n12` [1,2,4-thiadiazolo [4,5-a]benzimidazol-3-yl-L-proline methyl ester], the kinact/KI in series [1] stood at 626 M⁻¹ s⁻¹; in series [2], 356 M⁻¹ s⁻¹; in series [3], 1050 M⁻¹ s⁻¹. Besides, the inhibition at 10 µM was determined as 88% in series [1] (steady state, 10 μM [inhibitor], % sign not given) and 99% in series [3] (steady state, 10 μM [inhibitor]). 0.26 µM produced 97% inhibition in series [2] (steady state, 0.26 μM [inhibitor]).

As for `c1cncc(-c2nsc(-c3cccnc3)n2)c1` [3,5-di(3-pyridyl)-1,2,4-thiadiazole], the “reaction with benzyl mercaptan” value in series [4] is given as “do not react with benzyl mercaptan”.

With `c1ccc2c(c1)nc1snc(N3CCNCC3)n12` [3-(1-piperazinyl)-1,2,4-thiadiazolo[4,5-a]benzimidazole], the EC50 in series [5] came to 1000 nM.

In series [5], `CN1CCN(c2nsc3nc4ccccc4n23)CC1` [3-(4-methyl-1-piperazinyl)-1,2,4-thiadiazolo-[4,5-a]benzimidazole] came in with an EC50 of 2000 nM. Moreover, the kinact/KI in series [1] amounted to 19 M⁻¹ s⁻¹; in series [2], 28 M⁻¹ s⁻¹; in series [3], 24 M⁻¹ s⁻¹. In addition, the inhibition at 200 µM in series [1] (steady state) stood at 68%; in series [2] (steady state), 99%; in series [3] (setting [7]), 98%.

The compound `c1ccc2c(c1)nc1snc(CN3CCOCC3)n12` [3-(morpholinomethyl)-1,2,4-thiadiazolo[4,5-a]benzimidazole] returned an EC50 in series [5] of 200 nM. In addition, the kinact/KI in series [1] worked out at 8 M⁻¹ s⁻¹; in series [2], 7 M⁻¹ s⁻¹; in series [3], 7 M⁻¹ s⁻¹. Moreover, the inhibition at 200 µM in series [1] (steady state) was found to be 60%; in series [2] (steady state), 92%; in series [3] (steady state, 200 μM [inhibitor], % sign not given), 80%.

As for `c1ccc2c(c1)nc1snc(OCCN3CCOCC3)n12` [3-[2-(N-morpholino)ethoxy]-1,2,4-thiadiazolo[4,5-a]benzimidazole], the kinact/KI was 107 M⁻¹ s⁻¹ in series [1], 5560 M⁻¹ s⁻¹ in series [2] and 356 M⁻¹ s⁻¹ in series [3]. For the same compound, the inhibition at 50 µM in series [1] (setting [8]) is 91%. The same compound returned an inhibition at 0.66 µM in series [2] (steady state, 0.66 μM [inhibitor]) of 99.6%. In series [3] (steady state, 25 μM [inhibitor]), this compound yielded an inhibition at 25 µM of 99%.

Compound `c1ccc2c(c1)nc1snc(NCCN3CCOCC3)n12` [3-[2-(N-morpholino)ethylamino]l,2,4-thiadiazolo-[4,5-a]benzimidazole] had a concentration giving a half-maximal response (EC50) in series [5] of 200 nM.

With `O=C(c1ccccn1)c1nsc2nc3ccccc3n12` [3-[oxo(2-pyridyl)methyl]-1,2,4-thiadiazolo [4,5-a]benzimidazole], the results for the kinact/KI in series [1], in series [2] and in series [3] were 15 M⁻¹ s⁻¹, 2480 M⁻¹ s⁻¹ and 68 M⁻¹ s⁻¹, respectively. Further, the inhibition at 200 µM in series [1] (steady state) is 58%; in series [3] (setting [7]), 99%. Moreover, testing at 1 µM in series [2] (steady state) gave an inhibition of 79%.

Consider `COc1nsc(N)n1` [3-methoxy-5-amino-1,2,4-thiadiazoles, 5-amino-3-methoxy-1,2,4-thiadiazole], for which, in series [4], the “reaction with benzyl mercaptan” value was “reacted with benzyl mercaptan”.

As to `Cc1nsc(NCc2ccccc2)n1` [3-methyl-5-benzylamino-1,2,4-thiadiazole], the “reaction with benzyl mercaptan” value in series [4] is reported as “do not react with benzyl mercaptan”.

Consider `Cc1nsc(N(Cc2ccccc2)Cc2ccccc2)n1` [3-methyl-5-dibenzylamino-1,2,4-thiadiazole], for which, in series [4], the “reaction with benzyl mercaptan” value is on record as “do not react with benzyl mercaptan”.

In the case of `COc1nsc(NC(=O)N[C@@H](CC(C)C)C(=O)NCCC(C)C)n1` [Example T11AA], the kinact/KI is 1060 M⁻¹ s⁻¹ in series [1], 3900 M⁻¹ s⁻¹ in series [2] and 3480 M⁻¹ s⁻¹ in series [3]. For the same compound, the inhibition at 5 µM in series [1] (steady state, 5 μM [inhibitor]) turned out to be 56%; in series [3] (steady state) it was 99%. In series [2] (steady state), the inhibition at 1 µM came out at 97%.

In the case of `COc1ccc2[nH]c([S+]([O-])Cc3ncc(C)c(OC)c3C)nc2c1` (stereo not shown) [Omeprazole, reference compound], the acid stability result in series [6] is given as “complete decomposition in a few minutes”.

With `O=C(O)c1nsc2nc3ccccc3n12` [sodium 3-carboxylato-1,2,4-thiadiazolo[4,5-albenzimidazole], the kinact/KI is 34 M⁻¹ s⁻¹ in series [1], 131 M⁻¹ s⁻¹ in series [2] and 184 M⁻¹ s⁻¹ in series [3]. Also, the inhibition at 200 µM worked out at 85% in series [1] (steady state) and 99.6% in series [2] (steady state). In series [3] (setting [8]), this compound returned an inhibition at 50 µM of 98%.

As for `CC(C)CCNC(=O)[C@H](CC(C)C)NC(=O)c1nsc2nc3ccccc3n12` [{1,2,4-thiadiazolo[4,5-a]benzimidazol-3-yl}-carbonyl-L-leucyl isoamylamide], the kinact/KI in series [2] amounted to 500 M⁻¹ s⁻¹; in series [3], 307 M⁻¹ s⁻¹. Further, the inhibition at 5 µM in series [2] (steady state, 5 μM [inhibitor]) came to 95%; in series [3] (steady state), 93%.
